# Results as given in paper PMC3128788 (Nuclear medicine and biology, 2011).
# Marks after values point to notes of the source that are not given here.
# Format: in vivo, male Sprague Dawley rats
# Settings: for Blood %ID/gram, 5 min CycA / Bone %ID/gram, 5 min CycA / Fat %ID/gram, 5 min CycA / Kidney %ID/gram, 5 min CycA / Liver %ID/gram, 5 min CycA / Lung %ID/gram, 5 min CycA / Muscle %ID/gram, 5 min CycA / Total brain %ID/gram, 5 min CycA / Blood %ID/gram, 30 min CycA / Bone %ID/gram, 30 min CycA / Fat %ID/gram, 30 min CycA / Kidney %ID/gram, 30 min CycA / Liver %ID/gram, 30 min CycA / Lung %ID/gram, 30 min CycA / Muscle %ID/gram, 30 min CycA / Total brain %ID/gram, 30 min CycA: CycA […] mg/kg i.v. 30 min before tracer; for Blood %ID/gram, 30 min CycA / Bone %ID/gram, 30 min CycA / Fat %ID/gram, 30 min CycA / Kidney %ID/gram, 30 min CycA / Liver %ID/gram, 30 min CycA / Lung %ID/gram, 30 min CycA / Muscle %ID/gram, 30 min CycA / Total brain %ID/gram, 30 min CycA / Blood %ID/gram, 30 min No Rx / Bone %ID/gram, 30 min No Rx / Fat %ID/gram, 30 min No Rx / Kidney %ID/gram, 30 min No Rx / Liver %ID/gram, 30 min No Rx / Lung %ID/gram, 30 min No Rx / Muscle %ID/gram, 30 min No Rx / Total brain %ID/gram, 30 min No Rx: 30 min post-injection; for Increase in brain uptake after CycA administration at 5 min: 5 min post injection; for Bone activity levels from 5 min to 30 min (metabolic defluorination): normal rats; for Blood CycA:No Rx / Bone CycA:No Rx / Fat CycA:No Rx / Kidney CycA:No Rx / Liver CycA:No Rx / Lung CycA:No Rx / Muscle CycA:No Rx / Total brain CycA:No Rx: ratio of tracer uptake in CycA versus control group 30 min post injection
# [1] = CycA pretreated versus control rats
# [2] = control rats, i.v., 5 min post-injection
structure (smiles),measurement,setting,value
"COc1ccccc1N1CCN(CCCCNC(=O)c2ccc(CC[18F])cc2)CC1 [[^18F]7, 4-(2-[^18F]-fluoroethyl)-N-(4-(4-(2-methoxyphenyl)piperazin-1-yl)butyl)benzamide]","Blood %ID/gram, 5 min CycA",5 min post-injection,0.156 ± 0.033 %ID/gram
same,"Bone %ID/gram, 5 min CycA",5 min post-injection,0.232 ± 0.015 %ID/gram
same,"Fat %ID/gram, 5 min CycA",5 min post-injection,0.062 ± 0.017 %ID/gram
same,"Kidney %ID/gram, 5 min CycA",5 min post-injection,1.782 ± 0.242 %ID/gram
same,"Liver %ID/gram, 5 min CycA",5 min post-injection,1.790 ± 0.286 %ID/gram
same,"Lung %ID/gram, 5 min CycA",5 min post-injection,1.423 ± 0.262 %ID/gram
same,"Muscle %ID/gram, 5 min CycA",5 min post-injection,0.158 ± 0.055 %ID/gram
same,"Total brain %ID/gram, 5 min CycA",5 min post-injection,0.421 ± 0.115 %ID/gram
same,"Blood %ID/gram, 30 min CycA",,0.178 ± 0.018 %ID/gram
same,"Bone %ID/gram, 30 min CycA",,0.168 ± 0.016 %ID/gram
same,"Fat %ID/gram, 30 min CycA",,0.069 ± 0.011 %ID/gram
same,"Kidney %ID/gram, 30 min CycA",,0.898 ± 0.076 %ID/gram
same,"Liver %ID/gram, 30 min CycA",,1.870 ± 0.184 %ID/gram
same,"Lung %ID/gram, 30 min CycA",,0.563 ± 0.016 %ID/gram
same,"Muscle %ID/gram, 30 min CycA",,0.147 ± 0.006 %ID/gram
same,"Total brain %ID/gram, 30 min CycA",,0.271 ± 0.068 %ID/gram
same,Increase in brain uptake after CycA administration at 5 min,[1],6.3 fold
same,Increase in brain uptake after CycA administration at 30 min,"CycA pretreated versus control rats, 30 min post injection",2.7 fold
same,"Blood %ID/gram, 5 min No Rx",[2],0.133 ± 0.018 %ID/gram
same,"Bone %ID/gram, 5 min No Rx",[2],0.243 ± 0.041 %ID/gram
same,"Fat %ID/gram, 5 min No Rx",[2],0.084 ± 0.036 %ID/gram
same,"Kidney %ID/gram, 5 min No Rx",[2],1.582 ± 0.293 %ID/gram
same,"Liver %ID/gram, 5 min No Rx",[2],2.035 ± 0.578 %ID/gram
same,"Lung %ID/gram, 5 min No Rx",[2],1.182 ± 0.086 %ID/gram
same,"Muscle %ID/gram, 5 min No Rx",[2],0.107 ± 0.017 %ID/gram
same,"Blood %ID/gram, 30 min No Rx","control rats, i.v.",0.167 ± 0.018 %ID/gram
same,"Bone %ID/gram, 30 min No Rx","control rats, i.v.",0.164 ± 0.018 %ID/gram
same,"Fat %ID/gram, 30 min No Rx","control rats, i.v.",0.086 ± 0.013 %ID/gram
same,"Kidney %ID/gram, 30 min No Rx","control rats, i.v.",0.952 ± 0.100 %ID/gram
same,"Liver %ID/gram, 30 min No Rx","control rats, i.v.",2.169 ± 0.113 %ID/gram
same,"Lung %ID/gram, 30 min No Rx","control rats, i.v.",0.668 ± 0.057 %ID/gram
same,"Muscle %ID/gram, 30 min No Rx","control rats, i.v.",0.143 ± 0.011 %ID/gram
same,"Total brain %ID/gram, 30 min No Rx","control rats, i.v.",0.098 ± 0.012 %ID/gram
same,Bone activity levels from 5 min to 30 min (metabolic defluorination),,No accumulation
same,Blood CycA:No Rx,,1.06
same,Bone CycA:No Rx,,1.02
same,Fat CycA:No Rx,,0.81
same,Kidney CycA:No Rx,,0.94
same,Liver CycA:No Rx,,0.86 ^e
same,Lung CycA:No Rx,,0.84 ^d
same,Muscle CycA:No Rx,,1.03
same,Total brain CycA:No Rx,,2.77 ^f
"CN(C)c1ccc(C(=O)NCCCCN2CCN(c3ccccc3OCC[18F])CC2)cc1 [[^18F]8, 4-(dimethylamino)-N-(4-(4-(2-(2-[^18F]fluoroethoxy)phenyl)piperazin-1-yl)butyl)benzamide]","Blood %ID/gram, 5 min CycA",5 min post-injection,0.109 ± 0.009 %ID/gram
same,"Bone %ID/gram, 5 min CycA",5 min post-injection,0.288 ± 0.008 %ID/gram
same,"Fat %ID/gram, 5 min CycA",5 min post-injection,0.116 ± 0.004 %ID/gram
same,"Kidney %ID/gram, 5 min CycA",5 min post-injection,2.235 ± 0.175 %ID/gram
same,"Liver %ID/gram, 5 min CycA",5 min post-injection,1.770 ± 0.584 %ID/gram
same,"Lung %ID/gram, 5 min CycA",5 min post-injection,1.893 ± 0.158 %ID/gram
same,"Muscle %ID/gram, 5 min CycA",5 min post-injection,0.184 ± 0.014 %ID/gram
same,"Total brain %ID/gram, 5 min CycA",5 min post-injection,0.895 ± 0.063 %ID/gram
same,"Blood %ID/gram, 30 min CycA",,0.062 ± 0.018 %ID/gram
same,"Bone %ID/gram, 30 min CycA",,0.599 ± 0.152 %ID/gram
same,"Fat %ID/gram, 30 min CycA",,0.115 ± 0.030 %ID/gram
same,"Kidney %ID/gram, 30 min CycA",,2.548 ± 0.490 %ID/gram
same,"Liver %ID/gram, 30 min CycA",,2.431 ± 0.365 %ID/gram
same,"Lung %ID/gram, 30 min CycA",,1.154 ± 0.102 %ID/gram
same,"Muscle %ID/gram, 30 min CycA",,0.154 ± 0.038 %ID/gram
same,"Total brain %ID/gram, 30 min CycA",,0.970 ± 0.077 %ID/gram
same,Increase in brain uptake after CycA administration at 5 min,[1],5.0 fold
same,"Blood %ID/gram, 5 min No Rx",[2],0.079 ± 0.006 %ID/gram
same,"Bone %ID/gram, 5 min No Rx",[2],0.490 ± 0.033 %ID/gram
same,"Fat %ID/gram, 5 min No Rx",[2],0.101 ± 0.046 %ID/gram
same,"Kidney %ID/gram, 5 min No Rx",[2],2.939 ± 0.544 %ID/gram
same,"Liver %ID/gram, 5 min No Rx",[2],2.124 ± 0.113 %ID/gram
same,"Lung %ID/gram, 5 min No Rx",[2],2.432 ± 0.211 %ID/gram
same,"Muscle %ID/gram, 5 min No Rx",[2],0.099 ± 0.007 %ID/gram
same,"Total brain %ID/gram, 5 min No Rx",[2],0.178 ± 0.030 %ID/gram
same,"Blood %ID/gram, 30 min No Rx","control rats, i.v.",0.046 ± 0.008 %ID/gram
same,"Bone %ID/gram, 30 min No Rx","control rats, i.v.",0.882 ± 0.153 %ID/gram
same,"Fat %ID/gram, 30 min No Rx","control rats, i.v.",0.095 ± 0.017 %ID/gram
same,"Kidney %ID/gram, 30 min No Rx","control rats, i.v.",2.710 ± 0.235 %ID/gram
same,"Liver %ID/gram, 30 min No Rx","control rats, i.v.",2.134 ± 0.313 %ID/gram
same,"Lung %ID/gram, 30 min No Rx","control rats, i.v.",1.553 ± 0.179 %ID/gram
same,"Muscle %ID/gram, 30 min No Rx","control rats, i.v.",0.111 ± 0.006 %ID/gram
same,"Total brain %ID/gram, 30 min No Rx","control rats, i.v.",0.180 ± 0.006 %ID/gram
same,Bone activity levels from 5 min to 30 min (metabolic defluorination),,two-fold increase
same,Blood CycA:No Rx,,1.35
same,Bone CycA:No Rx,,0.68
same,Fat CycA:No Rx,,1.20
same,Kidney CycA:No Rx,,0.94
same,Liver CycA:No Rx,,1.14
same,Lung CycA:No Rx,,0.74
same,Muscle CycA:No Rx,,1.38
same,Total brain CycA:No Rx,,5.38 ^g
